Test results reported in publication PMC5733478, “A Non-imaging High Throughput Approach to Chemical Library Screening at the Unmodified Adenosine-A3 Receptor in Living Cells” (Frontiers in Pharmacology, 2017).
Structures can show the parent of a compound that is named as a salt.

Each molecule was assayed against T1, human A3AR (Homo sapiens, UniProt P0DMS8) (assay: LOPAC library primary screen: single concentration (10 μM) inhibition of 25 nM CA200645 binding, PHERAstar FS). Settings: not given.
T1 construct: expressed in transfected cells
T1 sequence (P0DMS8 1-318): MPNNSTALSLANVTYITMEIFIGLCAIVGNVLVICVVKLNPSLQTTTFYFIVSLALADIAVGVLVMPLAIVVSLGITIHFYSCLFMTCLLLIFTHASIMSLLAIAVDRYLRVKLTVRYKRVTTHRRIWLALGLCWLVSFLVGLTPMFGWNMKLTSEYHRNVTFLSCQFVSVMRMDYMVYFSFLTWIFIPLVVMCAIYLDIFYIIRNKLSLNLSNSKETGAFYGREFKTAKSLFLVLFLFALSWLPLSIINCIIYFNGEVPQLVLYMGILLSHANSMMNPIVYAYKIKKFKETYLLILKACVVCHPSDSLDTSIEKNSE

Molecule | % 25 nM CA200645 binding
OCc1cc(C(O)CNCCCCCCOCCCCc2ccccc2)ccc1O (stereo not shown) [Salmeterol xinafoate] | 92.6 ± 8.3%
CCCCC1(C2CCCC2)Cc2cc(OCC(=O)O)c(Cl)c(Cl)c2C1=O (stereo in doubt) [R(+)-Butylindazone] | 91.2 ± 11.8%
PD-184161 | 50.8 ± 14.3%
Cl.NC[C@@H]1O[C@H](c2ccccc2)Cc2c1ccc(O)c2O [A-68930 hydrochloride] | 95.6 ± 9.3%
CN(C)c1nc(N(C)C)nc(N(C)C)n1 [Altretamine] | 99.1 ± 9.2%
O=C(O)[C@@H]1CCN1 [L-azetidine-2-carboxylic acid] | 100.7 ± 4.1%
N=c1ccn2c(n1)O[C@H]1[C@H](O)[C@@H](CO)O[C@H]12 [Ancitabine hydrochloride] | 106.9 ± 5.2%
C=CCc1cccc(/C=N/NC(=O)CN2CCN(Cc3ccccc3)CC2)c1O [PAC-1] | 105.3 ± 4.5%
C[C@]12CCC(=O)C=C1CC[C@@H]1[C@@H]2C(=O)C[C@@]2(C)[C@H]1CC[C@]2(O)C(=O)CO [Cortisone] | 94.0 ± 5.3%
O=C1NC(=O)/C(=C/c2ccc(-c3ccc(F)cc3O)o2)S1 [AS-252424] | 45.8 ± 20.9%
CCOC(=O)Nc1ccc(NCc2ccc(F)cc2)nc1N [Flupirtine maleate] | 75.3 ± 9.1%
CC(C)NCC(O)COc1ccc(COCCOC(C)C)cc1.CC(C)NCC(O)COc1ccc(COCCOC(C)C)cc1.O=C(O)/C=C/C(=O)O (stereo not shown) [Bisoprolol hemifumarate salt] | 106.9 ± 6.1%
O=c1n(CCCN2CCN(c3cccc(Cl)c3)CC2)nc2ccccn12 [Trazodone hydrochloride] | 104.7 ± 11.3%
Cc1ccc(S(=O)(=O)O)cc1.NC[C@H]1O[C@@H](n2cnc3c(N)ncnc32)[C@H](O)[C@@H]1O | 85.5 ± 26.7%
CCCCC#Cc1nc(NC)c2ncn([C@@H]3O[C@H](CO)[C@@H](O)[C@H]3O)c2n1 [HEMADO, reference compound] | 40.1 ± 10.4%
CC(N)=O [Acetamide] | 96.1 ± 7.6%
CC(C)NCC(O)c1ccc(NS(C)(=O)=O)cc1.Cl (racemic) [(±)-Sotalol hydrochloride] | 93.5 ± 12.0%
N#C/C(=C\c1ccc(-c2cc(Cl)ccc2Cl)o1)C(=O)Nc1cccc2ncccc12 [AGK2] | 35.8 ± 5.6%
Cl.O=C(CCCCCN1CCN(c2ccccc2-c2ccccc2)CC1)NC1CCCc2ccccc21 (stereo not shown) [LP 12 hydrochloride hydrate] | 93.7 ± 9.5%
C[C@@H]1O[C@@H](O[C@H]2C[C@@H](O)[C@]3(CO)[C@H]4[C@H](O)C[C@]5(C)[C@@H]([C@@H]6COC(=O)C6)CC[C@]5(O)[C@@H]4CC[C@]3(O)C2)[C@H](O)[C@H](O)[C@H]1O [Dihydroouabain] | 102.4 ± 11.9%
C[N+](C)(C)CC(=O)O [Betaine hydrochloride] | 78.7 ± 15.6%
NS(=O)(=O)c1cc2c(cc1Cl)NC(C1CC3C=CC1C3)NS2(=O)=O (stereo not shown) [Cyclothiazide] | 93.2 ± 4.7%

Molecule | % 25 nM CA200645 binding
Oc1ccc2c3c1O[C@H]1c4[nH]c5ccccc5c4C[C@@]4(O)[C@@H](C2)N(CC2CC2)CC[C@]314 [Naltrindole hydrochloride] | 111.0 ± 9.1%
CNCCc1cnc(CCC(c2ccccc2)c2ccccc2)[nH]1.O=C(O)C(=O)O.O=C(O)C(=O)O [N-Methylhistaprodifen dioxalate salt] | 99.4 ± 7.3%
CN(C)CCCN1c2ccccc2Sc2ccc(Cl)cc21 [Chlorpromazine hydrochloride] | 92.2 ± 10.3%
O=C(c1ccc(Cl)cc1)N1CCN(c2ccc([N+](=O)[O-])c3ncccc23)CC1 [CPNQ] | 83.4 ± 4.6%
Cc1cccc(C)c1NC(=O)CN1CCCC1=O [Nefiracetam] | 88.8 ± 23.8%
C[C@](N)(CCP(=O)(O)O)C(=O)O.Cl [(S)-MAP4 hydrochloride] | 89.0 ± 15.4%
COc1ccccc1N1CCNCC1.Cl | 114.8 ± 8.3%
C=CCNc1ncnc2ccc(Br)cc12 [SMER28] | 86.4 ± 8.7%
Cn1ccc2cc3c(cc21)CCN3C(=O)Nc1cccnc1 [SB 206553 hydrochloride] | 60.7 ± 9.3%
CS(=O)(=O)Nc1ccc([N+](=O)[O-])cc1Oc1ccccc1 [Nimesulide] | 114.0 ± 22.1%
O=C1NCN(c2ccccc2)C12CCN(CCCC(c1ccc(F)cc1)c1ccc(F)cc1)CC2 [Fluspirilene] | 94.5 ± 10.0%
CNCC[C@@H](Oc1ccccc1C)c1ccccc1 [Tomoxetine] | 97.5 ± 8.3%
S-Nitroso-N-acetylpenicillamine | 127.5 ± 10.1%
Cl.c1ccc(CN2CCC3(CCCc4ccccc43)CC2)cc1 [L-687,384 hydrochloride] | 108.6 ± 4.6%
COc1ccc2c(c1)CC[C@@H]1[C@@H]2CC[C@]2(C)[C@@H](NCCCCCCN3C(=O)C=CC3=O)CC[C@@H]12 [U-73122] | 73.1 ± 7.4%
CC(C)(C)NCC(O)c1cc(O)cc(O)c1.CC(C)(C)NCC(O)c1cc(O)cc(O)c1.O=S(=O)(O)O (stereo not shown) [Terbutaline hemisulfate] | 102.8 ± 10.1%
CN(C)CC[C@@H](c1ccc(Cl)cc1)c1ccccn1 [(+)-Chlorpheniramine maleate] | 96.8 ± 6.2%
CC(C)OC(=O)C(C)(C)Oc1ccc(C(=O)c2ccc(Cl)cc2)cc1 [Fenofibrate] | 87.6 ± 17.1%
Br.CCCN1CCC2c3cc(O)ccc3CCC21 (racemic) [cis(+/-)-8-OH-PBZI hydrobromide] | 98.1 ± 5.1%
NC(N)=NOCC[C@H](N)C(=O)O [L-Canavanine] | 101.1 ± 4.7%
O=c1cc(-c2ccc(O)cc2)oc2cc(O)cc(O)c12 [Apigenin] | 41.8 ± 13.4%
CCCCCCCCCC(=O)NC(CN1CCOCC1)[C@H](O)c1ccccc1.Cl (mixture of isomers) | 98.6 ± 11.0%

Molecule | % 25 nM CA200645 binding
Fc1ccc([C@@H]2CCNC[C@H]2COc2ccc3c(c2)OCO3)cc1 [Paroxetine hydrochloride hemihydrate] | 97.2 ± 4.3%
O=c1c2ccccc2[nH]c(=S)n1CCN1CCC(=C(c2ccc(F)cc2)c2ccc(F)cc2)CC1 [Diacylglycerol Kinase Inhibitor II] | 51.5 ± 9.4%
O=[N+]([O-])c1ccc2c(c1)S(=O)(=O)C=C2 [Stattic] | 107.3 ± 19.6%
C[C@@H](c1ncncc1F)[C@](O)(Cn1cncn1)c1ccc(F)cc1F [Voriconazole] | 96.1 ± 10.4%
CN1CCN2c3ccccc3Cc3ccccc3C2C1 (stereo not shown) [Mianserin hydrochloride] | 92.0 ± 7.7%
Nc1ncnc2c1c(-c1ccc(Oc3ccccc3)cc1)cn2C1CCCC1 | 58.8 ± 13.2%
CCN1CCc2nc(N)oc2CC1.Cl.Cl [B-HT 933 dihydrochloride] | 90.5 ± 9.0%
O=[N+]([O-])c1cc2nc(O)c(O)nc2cc1[N+](=O)[O-] [DNQX] | 85.0 ± 6.8%
CCNc1nc2c(ncn2[C@H]2C[C@H](O)[C@@H](CO)O2)c(=O)[nH]1 [N2-Ethyl-2'-deoxyguanosine] | 108.7 ± 6.3%
COCCOc1cc2nc[nH]c(=O)c2cc1OCCOC [CP-380736] | 88.0 ± 4.4%
NCCc1c[nH]c2ccccc12 [Tryptamine hydrochloride] | 98.8 ± 5.7%
CC(C)[C@H]1c2ccc(F)cc2CC[C@@]1(CCN(C)CCCc1nc2ccccc2[nH]1)OC(=O)C1CC1 [NNC 55-0396] | 109.8 ± 31.5%
CCn1cc(C(=O)O)c(=O)c2cc3c(cc21)OCO3 [Oxolinic acid] | 101.1 ± 12.4%
Nc1nc(OCC2CCCCC2)c2[nH]cnc2n1 [NU2058] | 53.9 ± 7.1%
Cl.Nc1ccn([C@@H]2O[C@H](CO)[C@@H](O)[C@@H]2O)c(=O)n1 | 98.1 ± 3.7%
Cl.O=c1[nH]oc2c1CCNC2 [THIP hydrochloride] | 100.3 ± 3.4%
CN1C[C@H](CNC(=O)OCc2ccccc2)C[C@@H]2c3cccc4c3c(cn4C)C[C@H]21 [Metergoline] | 94.1 ± 8.5%
CC(CCc1ccc(O)cc1)NCCc1ccc(O)c(O)c1 (stereo not shown) [Dobutamine hydrochloride] | 101.9 ± 15.9%
CC(=O)NBr [N-Bromoacetamide] | 97.9 ± 5.0%
NCCCP(=O)(O)O [3-Aminopropylphosphonic acid] | 90.0 ± 2.1%
CNCCc1ccc(O)c(O)c1.Cl [N-Methyldopamine hydrochloride] | 96.1 ± 15.9%
COc1cc([C@@H]2c3cc4c(cc3[C@H](O)[C@H]3COC(=O)[C@H]23)OCO4)cc(OC)c1OC [Podophyllotoxin] | 97.7 ± 17.3%

Same assay, conditions: 10 μM compound, 25 nM CA200645, A3AR CHO cells

Molecule | hit in LOPAC primary screen (inhibited the binding of CA200645 by >40%)
Cn1c(=O)c2nc(C3CCCC3)[nH]c2n(C)c1=O [CPT, reference compound] | not identified as hits

Same assay, conditions: % of 25 nM CA200645 binding in the presence of 10 μM compound, LOPAC full screen, A3AR CHO cells

Molecule | % Total CA200645 binding
CCCCC#Cc1nc(NC)c2ncn([C@@H]3O[C@H](CO)[C@@H](O)[C@H]3O)c2n1 [HEMADO, reference compound] | 40.1 ± 10.5%

Same assay, conditions: compounds tested at 10 µM; % of control wells (1% DMSO and 25 nM CA200645); […]; mean ± SD, three experiments in duplicate

Molecule | % 25 nM CA200645 binding
Cl.O=C(O)C1CCCN(CCC=C(c2ccccc2)c2ccccc2)C1 (stereo not shown) [SKF 89976A hydrochloride] | 95.9 ± 25.1%

Same assay, conditions: compounds tested at 10 µM; % of control wells (1% DMSO and 25 nM CA200645); whole live cells expressing the A3AR; mean ± SD, three experiments in duplicate

Molecule | % 25 nM CA200645 binding
CC1(C)CCC(NC(=O)[C@@H](N)CCC(=O)O)CC1 [CR 2249] | 109.1 ± 19.6%
